Results as given in the supplement of paper PMC11208160.

Test: recombinant barcode read abundance after kanamycin selection (control-corrected) (log10(CPM+1)); higher = more efficient recombination; sequences stand for … in AGTGCAGAGAAAATCGGCCAGTTTTCTCTGCCTGCAGTCCGCATGCCGT…AGATTTATGCAGCGGACTGCCTTTCTCCCAAAGTGATAAACCGGACAGTATCATGGACCGGTTTTCCCGGTAATCCGTATTTGCAAGGTTGGTTTCACT; site = the 11-nt target
Procedure, shortened: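 Targets and IS621 bridge RNA target-binding loops were paired in oligos, each with a promoter, a barcode and the J23119-driven first 104 bridge RNA bases. A vector carrying the remaining 73 bp and a T7-inducible recombinase received these by Gibson cloning, and the pool was co-electroporated into E. coli with a donor plasmid. Duplicate plates contained chloramphenicol/ampicillin LB agar (control) or chloramphenicol/ampicillin/kanamycin with 0.1 mM IPTG. Recombination efficiency comes from averaged, control-corrected counts per million of recombinant-junction barcodes, reported as log10(CPM+1).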
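Further: IS621 recombinase and bridge RNA in Escherichia coli cells.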

Sequence | recombinant barcode read abundance (log10)
TCGGGATCTTGGGTTCTAACCTGTTGCCT (site ACGGGATCTAG) | 0.365
TCGGGATCTTGGGTTCTAACCTGTTGCCT (site CCGGGATCTAG) | 0.184
TCGGGATCTTGGGTTCTAACCTGTTGCCT (site GCGGGATCTAG) | 0.0188
TCGGGATCTTGGGTTCTAACCTGTTGCCT (site TCGGGATCTAG) | 1.05
TCGGTGACTTGGGTTCTAACCTGTTGCCT (site ACGGTGACTAG) | 0.658
TCGGTGACTTGGGTTCTAACCTGTTGCCT (site CCGGTGACTAG) | 0.0364
TCGGTGACTTGGGTTCTAACCTGTTGCCT (site GCGGTGACTAG) | 0.0708
TCGGTGACTTGGGTTCTAACCTGTTGCCT (site TCGGTGACTAG) | 0.87
TCGTACCCTTGGGTTCTAACCTGTTGCGA (site TCGAACCCTTC) | 0.256
TCGTACCCTTGGGTTCTAACCTGTTGCGA (site TCGCACCCTTC) | 0.0875
TCGTACCCTTGGGTTCTAACCTGTTGCGA (site TCGGACCCTTC) | 0.0548
TCGTACCCTTGGGTTCTAACCTGTTGCGA (site TCGTACCCTTC) | 0.617
TCGTCTCCTTGGGTTCTAACCTGTTGCTT (site TCGTCTCCTAA) | 0
TCGTCTCCTTGGGTTCTAACCTGTTGCTT (site TTATCTCCTAA) | 0.386
TCGTGCACTTGGGTTCTAACCTGTTGCCT (site TCGTGCACTAG) | 0.215
TCGTGCACTTGGGTTCTAACCTGTTGCCT (site TCGTGCCCTAG) | 0.448
TCGTGCACTTGGGTTCTAACCTGTTGCCT (site TCGTGCGCTAG) | 0.0852
TCGTGCACTTGGGTTCTAACCTGTTGCCT (site TCGTGCTCTAG) | 0.178
TCGTGCCCTTGGGTTCTAACCTGTTGCTT (site TCGTGCCCTAA) | 0.0384
TCGTGCCCTTGGGTTCTAACCTGTTGCTT (site TCGTGCCCTCA) | 1.5
TCGTGCTCTTGGGTTCTAACCTGTTGCCT (site TCGTGCACTAG) | 0.0667
TCGTGCTCTTGGGTTCTAACCTGTTGCCT (site TCGTGCCCTAG) | 0.282
TCGTGCTCTTGGGTTCTAACCTGTTGCCT (site TCGTGCGCTAG) | 0.193
TCGTGCTCTTGGGTTCTAACCTGTTGCCT (site TCGTGCTCTAG) | 0.0894
TCTAACCCTTGGGTTCTAACCTGTTGCAT (site TCTAAACCTAT) | 0.0654
TCTAACCCTTGGGTTCTAACCTGTTGCAT (site TCTAACCCTAT) | 0.251

Sequence | recombinant barcode read abundance (log10)
TCTAACCCTTGGGTTCTAACCTGTTGCAT (site TCTAAGCCTAT) | 0.028
TCTAACCCTTGGGTTCTAACCTGTTGCAT (site TCTAATCCTAT) | 0.0655
TCTAATCCTTGGGTTCTAACCTGTTGCAT (site TCTAAACCTAT) | 0.11
TCTAATCCTTGGGTTCTAACCTGTTGCAT (site TCTAACCCTAT) | 0.0519
TCTAATCCTTGGGTTCTAACCTGTTGCAT (site TCTAAGCCTAT) | 0.0992
TCTAATCCTTGGGTTCTAACCTGTTGCAT (site TCTAATCCTAT) | 0.025
TCTAATTCTTGGGTTCTAACCTGTTGCAT (site TCTAATTCTAT) | 0.0913
TCTAATTCTTGGGTTCTAACCTGTTGCAT (site TCTGACTCTAT) | 0.186
TCTAATTCTTGGGTTCTAACCTGTTGCGT (site TCTAATTCTAC) | 0.095
TCTAATTCTTGGGTTCTAACCTGTTGCGT (site TCTCATTCTAC) | 0.162
TCTAATTCTTGGGTTCTAACCTGTTGCGT (site TCTGATTCTAC) | 0.899
TCTAATTCTTGGGTTCTAACCTGTTGCGT (site TCTTATTCTAC) | 0.047
TCTAGAGCTTGGGTTCTAACCTGTTGCCT (site TCTAGAACTAG) | 0.0712
TCTAGAGCTTGGGTTCTAACCTGTTGCCT (site TCTAGACCTAG) | 0.228
TCTAGAGCTTGGGTTCTAACCTGTTGCCT (site TCTAGAGCTAG) | 0.0183
TCTAGAGCTTGGGTTCTAACCTGTTGCCT (site TCTAGATCTAG) | 0.339
TCTAGGACTTGGGTTCTAACCTGTTGCAA (site CGACAATCTAA) | 0.29
TCTAGGACTTGGGTTCTAACCTGTTGCAA (site TCTAGGACTTT) | 0.52
TCTCACGCTTGGGTTCTAACCTGTTGCCT (site TCGCACGCTAG) | 0.0772
TCTCACGCTTGGGTTCTAACCTGTTGCCT (site TCTCACGCTAG) | 0.964
TCTCACTCTTGGGTTCTAACCTGTTGCCT (site TCACACTCTAG) | 0.0111
TCTCACTCTTGGGTTCTAACCTGTTGCCT (site TCCCACTCTAG) | 0.504
TCTCACTCTTGGGTTCTAACCTGTTGCCT (site TCGCACTCTAG) | 0.0924
TCTCACTCTTGGGTTCTAACCTGTTGCCT (site TCTCACTCTAG) | 1.54
TCTCATGCTTGGGTTCTAACCTGTTGCAT (site GACGGCACTCC) | 0.0135
TCTCATGCTTGGGTTCTAACCTGTTGCAT (site TCTCATGCTAT) | 0.224

Sequence | recombinant barcode read abundance (log10)
TCTCGGCCTTGGGTTCTAACCTGTTGCCT (site TCTCAGCCTAG) | 0.0701
TCTCGGCCTTGGGTTCTAACCTGTTGCCT (site TCTCCGCCTAG) | 0.394
TCTCGGCCTTGGGTTCTAACCTGTTGCCT (site TCTCGGCCTAG) | 0.202
TCTCGGCCTTGGGTTCTAACCTGTTGCCT (site TCTCTGCCTAG) | 0.0561
TCTGACTCTTGGGTTCTAACCTGTTGCAT (site TCTAATTCTAT) | 0.0501
TCTGACTCTTGGGTTCTAACCTGTTGCAT (site TCTGACTCTAT) | 1.59
TCTGAGTCTTGGGTTCTAACCTGTTGCTG (site GCTGAGGCTCA) | 0.141
TCTGAGTCTTGGGTTCTAACCTGTTGCTG (site TCTGAGTCTCA) | 0.858
TCTGGAGCTTGGGTTCTAACCTGTTGCAG (site CCAGGAGCTCT) | 0.0636
TCTGGAGCTTGGGTTCTAACCTGTTGCAG (site TCTGGAGCTCT) | 0.938
TCTGGGGCTTGGGTTCTAACCTGTTGCCG (site TCTGGGGCTCA) | 0.536
TCTGGGGCTTGGGTTCTAACCTGTTGCCG (site TCTGGGGCTCC) | 1.44
TCTGGGGCTTGGGTTCTAACCTGTTGCCG (site TCTGGGGCTCG) | 1.89
TCTGGGGCTTGGGTTCTAACCTGTTGCCG (site TCTGGGGCTCT) | 0.618
TCTGGGGCTTGGGTTCTAACCTGTTGCTG (site TCTGGGGCTCA) | 2.04
TCTGGGGCTTGGGTTCTAACCTGTTGCTG (site TCTGGGGCTCC) | 0.216
TCTGGGGCTTGGGTTCTAACCTGTTGCTG (site TCTGGGGCTCG) | 0.792
TCTGGGGCTTGGGTTCTAACCTGTTGCTG (site TCTGGGGCTCT) | 0.936
TCTTAGGCTTGGGTTCTAACCTGTTGCGT (site TCCTAGGCTGC) | 0.21
TCTTAGGCTTGGGTTCTAACCTGTTGCGT (site TCTTAGGCTAC) | 1.63
TCTTATACTTGGGTTCTAACCTGTTGCGT (site TCTTATACTAC) | 0.403
TCTTATACTTGGGTTCTAACCTGTTGCGT (site TCTTATACTAT) | 0
TCTTATTCTTGGGTTCTAACCTGTTGCCT (site TCTGATTCTCG) | 0.062
TCTTATTCTTGGGTTCTAACCTGTTGCCT (site TCTTATTCTAG) | 0.0342
TCTTGGACTTGGGTTCTAACCTGTTGCTG (site TCTTGGACTAA) | 0.159
